Read-outs that look alike come from different tables or passages of the source.
Target: T1, DR1Dw1 (Homo sapiens, UniProt P01903+P01911, A100R/D57E/F55L/F60I/F76Y/I96L/L162R/M171V/P40L/Q125E/R42F/V115G/Y59C)
T1 construct: these are Drosophila transmembrane DR; made in house; host or cells: Drosophila (cells)
Test: Inhibition of biotinylated RMBP 90-102 peptide binding to MHC class II DR1 (europium-streptavidin capture assay)
Description: In studies optimizing the assay it was determined that only between 5 to 10% of the DR molecules are capable of binding added peptide. Therefore, the effective concentration of DR1Dw1 and DR4Dw4 was approximately 0.125 and 1.0 nM, respectively. […] The DR-peptide complexes (50 μL) are transferred to wells of a 96-well EIA plate precoated with LB3.1, the monoclonal antibody which recognizes the DR alleles of MHC Class II, and blocked with PBS with fetal calf serum (FCS). An additional 50 μL of 50 mM Tris, pH 7.0, containing 0.75% octyl glucoside is added to each well and the mixture incubated overnight at 4° C. Excess peptide is removed by washing with PBS containing 0.05% Tween 20 (Polyoxyethylene sorbitan monolaurate) and 0.01% NaN3. Europium-labeled streptavidin (Wallac Inc.) is added and incubated overnight. After washing, complexes are measured by the addition of Enhance™ buffer, the tradename for 0.1M acetate phthalate buffer, pH 3.2, containing 0.1% Triton X-100, tradename for polyoxyethylene ethers and other surface active compounds of Union Carbide Chemicals and Plastics Co., Inc. (particularly, a non-ionic surfactant for recovery of membrane components under non-denaturing conditions) 15 μM 2-naphthoyltrifluoroacetone, and 50 μM tri-N-octylphosphine oxide, which buffer releases the chelated europium from streptavidin and forms a highly fluorescent micellar solution. The resultant fluorescence is measured using a fluorescent plate reader (e.g., DELPHIA, Wallac, Inc.). The data are analyzed using a four-parameter logistical curve […] program (e.g., SigmaPlot) that calculates the concentration of biotinylated peptide giving a half-maximal signal (ED50).
The inhibition assay format is identical to the procedure described above with the exception that the unlabeled antagonist is serially diluted and incubated with constant concentrations of biotinylated RMBP 90-102 (0.3 nM for DR1Dw1 or 0.9 nM for DR4Dw4) and the MHC class II proteins. The concentration of unlabeled compound that prevents 50% of the labeled peptide from binding is the IC50 value. The concentration of the biotinylated RMBP 90-102 in each assay is experimentally determined to be […] one-sixth of its measured ED50 to assure the inhibition was primarily measuring the binding characteristics of the competitor.
In particular, a protocol for carrying out the inhibition assay is given below.
Add 115 μL of 5μg/mL LB3.1 in 50 mM Tris HCl pH 9.6/azide to each well of a Costar EIA plate. Incubate the plate overnight at 4° C.
Wash the plate 4 times with water/0.05% Tween-20/azide. Add 200 μL of PBS /5% FCS/azide for 1 hour at 4° C. to block the plate. The plate may be held at this point for later use or used immediately.
Flip out the block. It is not necessary to wash the plate. At 50 μL of load buffer (50 mM Tris HCl, pH 8.0 0.75% octylglucoside). Add to this volume 50 μL of the reaction mix from day 2, step 3 below.
(1) Add the following to a polypropylene round bottom 96-well plate such as a Costar #3794:
(A) Diluent (Ca Mg free PBS adjusted to pH 6.5 with 0.1 M KH2 PO4/0.75% octylglucoside/azide).81 μL
(B) Competitor at 16.6 times the final concentration in diluent or diluent alone. 9 μL
(C) biotinylated rat myelin basic protein (BRMBP) 90-102; 1.5 nM for DR1 or 4.5 nM for DR4 (These are 5× stocks of final concentrations of 0.3 nM/DR1 or 0.9 nM/DR4) 30 μL
(D) 6.25 nM DR1Dw1 or 50 nM DR4Dw4 (these are Drosophila transmembrane DR) (This is a 5× stock of the final concentration of 1.25 or 10 nM.) 30 μL Add the DR last and mix well at this time 150 μL
(2) Incubate at 37° C. for 20 min and 5 hours.
(3) Add 50 μL of this reaction mixture to one well of the blocked antibody plate from day 2 above.
(4) Incubate overnight at 4° C. to capture the DR-peptide complexes.
(6) Add 125 μL of 100 ng/mL europium streptavidin (Wallac Inc.) in Ca Mg free PBS with 3.5 mg DTPA, 1.6 mL of 30% BSA/500 mL to each well.
(7) Incubate 2 to 4 hours at 4° C. […]

[1] = incubation at 37° C. for 20 min, 0.3 nM biotinylated RMBP 90-102, 1.25 nM DR1Dw1, pH 6.5, read-out: IC50 /μM @ 20'
[2] = incubation at 37° C. for 5 hours, 0.3 nM biotinylated RMBP 90-102, 1.25 nM DR1Dw1, pH 6.5, read-out: IC50 /μM @ 5h

Compound | IC50 [1] [µM] | IC50 [2] [µM]
α-[3-Phenylpropyl]-Lys-Nva-Leu-NH2 [Example 38] | 0.16 | 1.8
α-[(1R,2S)-1-Cyclohexylcyclopropyl-1-carbonyl]-Lys-Nva-Leu-NH2 [Example 22] | 0.012 | 1.08
CCCC(NC(=O)C(Cc1cccnc1)NCCCC1CCCCC1)C(=O)NC1CCCCNC1=O (stereo not shown) [Example 5] | 0.21 | 1.43
CCCC(NC(=O)C(CCCCN)NC(=O)CC(C)C1CCCCC1)C(=O)NC(CC(C)C)C(N)=O (stereo not drawn) [Example 36, α-[3R-methyl-3-cyclohexylpropionyl]-Lys-Nva-Leu-NH2] | 0.04 | 0.187
CCCC(NC(=O)C(CCCCN)NCCCC1CCCCC1)C(=O)NN(CC(C)C)C(=O)OCC (stereo not drawn) [Example 48, α-[3 -Cyclohexylpropyl]-Lys-Nva-α-AzaLeu-OEt] | 0.15 | 0.68
CCCC(NC(=O)C(CCCCN)NCCCC1CCCCC1)C(=O)NC(CC(C)C)C(N)=O (stereo not drawn) [Example 40, α-[3-Cyclohexylpropyl]-Lys-Nva-Leu-NH2] | 0.0052 | 0.059
CCC[C@H](NC(=O)[C@H](CCCCN)NC(=O)C=Cc1ccccc1C)C(=O)N[C@@H](CC(C)C)C(N)=O [Example 13, α-[2-methylcinnamoyl]-Lys-Nva-Leu-NH2] | 0.25 | 1.7
CCCCN(NC(=O)C(CCC)NC(=O)C(CCCCN)NCC1CCc2ccccc2C1)C(=O)OCC (stereo not drawn) [Example 52, α-[1,2,3,4-tetrahydronaphthyl-2-methyl]-Lys-Nva-α-AzaNle-OEt] | 0.03 | 0.14
CCCC(NC(=O)C(C)(C)NCCCC1CCCCC1)C(=O)NC(CC(C)C)C(N)=O (stereo not drawn) [Example 2, N-α((2-Methyl-2-((3-cyclohexyl)propylamino))-propanoyl)-Nva-Leu-NH2] | 0.26 | 1.59
CCCC(NC(=O)C(CCCCN)NC(=O)CC(C)c1ccccc1)C(=O)NC(CC(C)C)C(N)=O (stereo not drawn) [Example 34, α-[3R-methyl-3-phenylpropionyl]-Lys-Nva-Leu-NH2] | 0.16 | 1.25
CCCCN(NC(=O)C(CCC)NC(=O)C(CCCCN)NCCCC1CCCCC1)C(=O)OCC (stereo not drawn) [Example 50, α-[3-Cyclohexylpropyl]-Lys-Nva-α-AzaNle-OEt] | 0.046 | 0.26

— patent US5817757A, “Inhibitors of peptide binding to MHO class II proteins” (Merck & Co., Inc., priority 1996, dated 1998)
